Laboratory results reported in patent publication US6783775B2, “Serum-derived factor inducing cell differentiation and medical uses thereof” (Hadasit Medical Research Services and Development Ltd., priority 1996, dated 2004).

Experiments:
[1] = test system: normal hemopoietic progenitor cells; experiment: Indirect cloning (two-phase culture) of normal hemopoietic progenitors; type: cell-based, human; settings: indirect cloning system, control (0) 70
Protocol: Indirect cloning: Cells were prepared as described for direct cloning, were first incubated for several days in liquid culture supplemented with or without the indicated growth factors or tested fraction, then washed. and cloned in semi-solid medium as described above.
Expansion of normal hemopoietic progenitors—In order to test the effect of SDF on early and late normal hemopoietic progenitors a two-phase culture procedure was employed:
Phase 1 (Expansion phase)—Light density BM or PB cells were incubated for several days in liquid medium supplemented with SDF.
Phase 2 (Clonal phase)—At the end of phase 1, cells were harvested, washed and recultured in either semi solid medium or in liquid medium supplemented with either recombinant human late growth/differentiation factors like GM-CSF, Epo, or 5637-CM, which contains GM, G-CSF. IL-6, IL-1 and other cytokines, but not Epo. […] The lineage specific differentiation of the colonies in Phase 2 depended on the late factor present, e.g., Epo for CFU-E and GM-CSF for CFU-GM.

HL-60 cells [2] = experiment: Cell proliferation assay (3H-thymidine incorporation) on HL-60 cells; type: cell-based, human
Protocol: (§1) Cell lines included the human myelomonocytic cells HL-60, GM-CSF-dependent human myelomonocytic cells LK (established in the inventors' laboratory) and the murine monocytic cell line WEHI. Cell lines were maintained by sub-culturing every 3-4 days at 2.5×10^5 cell/ml in either alpha minimal essential or RPMI-1640 media (GIBCO, Grand Island, N.Y.) supplemented with 10-20% fetal calf serum (FCS) (Bio Labs Jerusalem, Israel). The cultures were incubated at 37° C., in a humidified atmosphere of 5% CO2 in air. The concentration of viable cells was determined by the trypan blue exclusion technique. Total cell count was performed using a Coulter counter.
HL-60 or other cells were cultured at 1.3×10^5/ml in 24-well dish and medium containing 0.5% heat-inactivated FCS and various dilutions of the tested fractions. DNA synthesis was determined on day 4 by incorporation of ^3[H]-thymidine ([…]/150 μl) (5 mCi/mmol, ICN Radiochemicals, Irvine, Calif.) added 12 hrs before harvesting. One unit of SDF was defined as the amount per milliliter required for 50% decrease in ^3H-thymidine incorporation.

HL-60 cells [3] = experiment: Leukemic cell cloning (colony formation) of HL-60 cells in semi-solid medium; type: cell-based, human; settings: HL-60 600 cells/ml; 8 days; mean of two experiments; G-CSF 1000 U/ml, IL-1 100 U/ml
Protocol: as §1
(§2) 300-1000 cells/ml were seeded in semi-solid medium composed of 0.83% methyl-cellulose (Fisher Scientific company, Fair Lawn, N.J.) or 0.3% Bacto agar (Difco laboratories, Detroit, Mich.) in alpha medium supplemented with 10% FCS. Colony number was scored with an inverted microscope on day 8. In order to determine cellular maturation, single colonies were picked up with a fine capillary tube, smeared on a glass slide and stained.

WEHI cells = experiment: Leukemic cell cloning (colony formation) of WEHI cells in semi-solid medium; type: cell-based, murine; settings: WEHI 300 cells/ml; 8 days; mean of two experiments; G-CSF 100 U/ml, IL-1 100 U/ml
Protocol: as §1, §2

O=C(O)c1cc(C(=O)O)c2c(n1)C(=O)C(=O)c1cc(C(=O)O)[nH]c1-2 [PQQ, pyrroloquinoline quinone]
Colony No. ([1]; PQQ concentration 0.01 μg/ml): 89 | Colony No. ([1]; PQQ concentration 0.1 μg/ml): 109 | Colony No. ([1]; PQQ concentration 1 μg/ml): 130 | Colony No. ([1]; PQQ concentration 5 μg/ml): 148 | inhibition at 0.01 µg/mL (HL-60 cells [2]; Homo sapiens, HL-60, PQQ concentration 0.01 μg/ml, HL60 cells, read-out: Growth inhibition (%)): 0% | inhibition at 0.05 µg/mL (HL-60 cells [2]; Homo sapiens, HL-60, PQQ concentration 0.05 μg/ml, HL60 cells, read-out: Growth inhibition (%)): 30% | inhibition at 0.1 µg/mL (HL-60 cells [2]; Homo sapiens, HL-60, PQQ concentration 0.1 μg/ml, HL60 cells, read-out: Growth inhibition (%)): 30% | inhibition at 0.5 µg/mL (HL-60 cells [2]; Homo sapiens, HL-60, PQQ concentration 0.5 μg/ml, HL60 cells, read-out: Growth inhibition (%)): 40% | inhibition at 1 µg/mL (HL-60 cells [2]; Homo sapiens, HL-60, PQQ concentration 1 μg/ml, HL60 cells, read-out: Growth inhibition (%)): 40% | inhibition at 5 µg/mL (HL-60 cells [2]; Homo sapiens, HL-60, PQQ concentration 5 μg/ml, HL60 cells, read-out: Growth inhibition (%)): 60%

CC1=C(/C=C/C(C)=C/C=C/C(C)=C/C(=O)O)C(C)(C)CCC1 [Retinoic acid]
Colonies: Diffused (fully differentiated) (HL-60 cells [3]): 114 | Colonies: Partially diffused (partially differentiated) (HL-60 cells [3]): 49 | Colonies: Tight (undifferentiated) (HL-60 cells [3]): 0 | Colonies: Total (HL-60 cells [3]): 163

B1: ceruloplasmin (protein, UniProt P00450 20-1065, looked up)
Ceruloplasmin: KEKHYYIGIIETTWDYASDHGEKKLISVDTEHSNIYLQNGPDRIGRLYKKALYLQYTDETFRTTIEKPVWLGFLGPIIKAETGDKVYVHLKNLASRPYTFHSHGITYYKEHEGAIYPDNTTDFQRADDKVYPGEQYTYMLLATEEQSPGEGDGNCVTRIYHSHIDAPKDIASGLIGPLIICKKDSLDKEKEKHIDREFVVMFSVVDENFSWYLEDNIKTYCSEPEKVDKDNEDFQESNRMYSVNGYTFGSLPGLSMCAEDRVKWYLFGMGNEVDVHAAFFHGQALTNKNYRIDTINLFPATLFDAYMVAQNPGEWMLSCQNLNHLKAGLQAFFQVQECNKSSSKDNIRGKHVRHYYIAAEEIIWNYAPSGIDIFTKENLTAPGSDSAVFFEQGTTRIGGSYKKLVYREYTDASFTNRKERGPEEEHLGILGPVIWAEVGDTIRVTFHNKGAYPLSIEPIGVRFNKNNEGTYYSPNYNPQSRSVPPSASHVAPTETFTYEWTVPKEVGPTNADPVCLAKMYYSAVEPTKDIFTGLIGPMKICKKGSLHANGRQKDVDKEFYLFPTVFDENESLLLEDNIRMFTTAPDQVDKEDEDFQESNKMHSMNGFMYGNQPGLTMCKGDSVVWYLFSAGNEADVHGIYFSGNTYLWRGERRDTANLFPQTSLTLHMWPDTEGTFNVECLTTDHYTGGMKQKYTVNQCRRQSEDSTFYLGERTYYIAAVEVEWDYSPQREWEKELHHLQEQNVSNAFLDKGEFYIGSKYKKVVYRQYTDSTFRVPVERKAEEEHLGILGPQLHADVGDKVKIIFKNMATRPYSIHAHGVQTESSTVTPTLPGETLTYVWKIPERSGAGTEDSACIPWAYYSTVDQVKDLYSGLIGPLIVCRRPYLKVFNPRRKLEFALLFLVFDENESWYLDDNIKTYSDHPEKVNKDDEEFIESNKMHAINGRMFGNLQGLTMHVGDEVNWYLMGMGNEIDLHTVHFHGHSFQYKHRGVYSSDVFDIFPGTYQTLEMFPRTPGIWLLHCHVTDHIHAGMETTYTVLQNEDTKSG
activity of the CP fraction separated from SDF (HL-60 cells [2]; CP fraction eluted at about 40% acetonitrile from RP-HPLC Resource column): devoid of activity

B2: G-CSF: growth factor (colony stimulating factor) used for comparison (protein, UniProt P09919 31-207, looked up)
Granulocyte …: TPLGPASSLPQSFLLKCLEQVRKIQGDGAALQEKLVSECATYKLCHPEELVLLGHSLGIPWAPLSSCPSQALQLAGCLSQLHSGLFLYQGLLQALEGISPELGPTLDTLQLDVADFATTIWQQMEELGMAPALQPTQGAMPAFASAFQRRAGGVLVASHLQSFLEVSYRVLRHLAQP
Colonies: Diffused (fully differentiated) (HL-60 cells [3]): 0 | Colonies: Partially diffused (partially differentiated) (HL-60 cells [3]): 12 | Colonies: Tight (undifferentiated) (HL-60 cells [3]): 325 | Colonies: Total (HL-60 cells [3]): 337 | Colonies: Diffused (fully differentiated) (WEHI cells): 51 | Colonies: Partially diffused (partially differentiated) (WEHI cells): 55 | Colonies: Tight (undifferentiated) (WEHI cells): 25 | Colonies: Total (WEHI cells): 132
